Values quoted from earlier work in patent publication US20250064971A1, “SUSTAINED RELEASE FORMULATIONS AND METHODS OF USE THEREOF” (VIRGINIA COMMONWEALTH UNIVERSITY, priority 2022, published 2025).

Target: hERG (Homo sapiens, UniProt Q12809)
Details: compared to LAAM

Sequence of hERG (Q12809 whole entry): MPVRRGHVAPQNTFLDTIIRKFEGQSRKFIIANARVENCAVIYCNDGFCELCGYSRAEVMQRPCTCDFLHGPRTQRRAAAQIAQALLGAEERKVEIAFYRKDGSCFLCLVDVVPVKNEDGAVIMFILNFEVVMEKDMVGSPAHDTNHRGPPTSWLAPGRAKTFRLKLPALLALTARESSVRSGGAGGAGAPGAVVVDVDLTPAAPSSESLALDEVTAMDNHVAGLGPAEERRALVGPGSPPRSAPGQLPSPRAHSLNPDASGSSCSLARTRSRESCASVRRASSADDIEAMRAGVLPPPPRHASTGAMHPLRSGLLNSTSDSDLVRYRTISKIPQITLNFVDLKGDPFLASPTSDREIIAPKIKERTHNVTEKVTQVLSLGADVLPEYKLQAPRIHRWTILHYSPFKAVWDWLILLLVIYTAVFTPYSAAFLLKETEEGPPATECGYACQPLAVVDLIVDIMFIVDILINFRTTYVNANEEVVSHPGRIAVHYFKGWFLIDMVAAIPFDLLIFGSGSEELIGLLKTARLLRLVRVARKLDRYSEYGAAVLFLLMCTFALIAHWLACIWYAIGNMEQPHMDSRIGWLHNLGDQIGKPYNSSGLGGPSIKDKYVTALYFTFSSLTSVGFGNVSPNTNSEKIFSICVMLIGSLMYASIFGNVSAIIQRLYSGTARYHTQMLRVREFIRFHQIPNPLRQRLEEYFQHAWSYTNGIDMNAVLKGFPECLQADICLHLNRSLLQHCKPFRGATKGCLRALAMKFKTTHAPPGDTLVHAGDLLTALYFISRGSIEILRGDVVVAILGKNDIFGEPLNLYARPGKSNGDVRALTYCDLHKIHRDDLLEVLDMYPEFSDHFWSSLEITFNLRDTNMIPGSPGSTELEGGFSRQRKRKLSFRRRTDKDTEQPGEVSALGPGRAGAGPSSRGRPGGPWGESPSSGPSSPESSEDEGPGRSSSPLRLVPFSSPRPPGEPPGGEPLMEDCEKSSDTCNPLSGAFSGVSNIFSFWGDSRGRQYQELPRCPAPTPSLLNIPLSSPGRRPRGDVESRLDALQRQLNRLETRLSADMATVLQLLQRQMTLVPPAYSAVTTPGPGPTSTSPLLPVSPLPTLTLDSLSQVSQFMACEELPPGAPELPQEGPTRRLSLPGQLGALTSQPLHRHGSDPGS

Compound: CCC(OC(C)=O)C(CC(C)NC)(c1ccccc1)c1ccccc1 (stereo not shown) [nor-LAAM]
- hERG inhibition IC50 (comparison in words): higher hERG inhibition IC50 than LAAM
